Assay results reported in BindingDB's records for PubMed 37738648 (Astrazeneca, 2023).

How the values were obtained:
[1] = molecular target: T1, Tyrosine-protein kinase JAK3 (Homo sapiens, UniProt P52333); assay: Inhibition of N-terminal GST-tagged human recombinant JAK3 (781 to 1124 residues) expressed in insect cells using 5FAM-GEEPLYWSFPAKKK-NH2 peptide as substrate incubated for 10 mins measured after 90 mins in presence of ATP by caliper mobility shift assay
T1 sequence (P52333 whole entry): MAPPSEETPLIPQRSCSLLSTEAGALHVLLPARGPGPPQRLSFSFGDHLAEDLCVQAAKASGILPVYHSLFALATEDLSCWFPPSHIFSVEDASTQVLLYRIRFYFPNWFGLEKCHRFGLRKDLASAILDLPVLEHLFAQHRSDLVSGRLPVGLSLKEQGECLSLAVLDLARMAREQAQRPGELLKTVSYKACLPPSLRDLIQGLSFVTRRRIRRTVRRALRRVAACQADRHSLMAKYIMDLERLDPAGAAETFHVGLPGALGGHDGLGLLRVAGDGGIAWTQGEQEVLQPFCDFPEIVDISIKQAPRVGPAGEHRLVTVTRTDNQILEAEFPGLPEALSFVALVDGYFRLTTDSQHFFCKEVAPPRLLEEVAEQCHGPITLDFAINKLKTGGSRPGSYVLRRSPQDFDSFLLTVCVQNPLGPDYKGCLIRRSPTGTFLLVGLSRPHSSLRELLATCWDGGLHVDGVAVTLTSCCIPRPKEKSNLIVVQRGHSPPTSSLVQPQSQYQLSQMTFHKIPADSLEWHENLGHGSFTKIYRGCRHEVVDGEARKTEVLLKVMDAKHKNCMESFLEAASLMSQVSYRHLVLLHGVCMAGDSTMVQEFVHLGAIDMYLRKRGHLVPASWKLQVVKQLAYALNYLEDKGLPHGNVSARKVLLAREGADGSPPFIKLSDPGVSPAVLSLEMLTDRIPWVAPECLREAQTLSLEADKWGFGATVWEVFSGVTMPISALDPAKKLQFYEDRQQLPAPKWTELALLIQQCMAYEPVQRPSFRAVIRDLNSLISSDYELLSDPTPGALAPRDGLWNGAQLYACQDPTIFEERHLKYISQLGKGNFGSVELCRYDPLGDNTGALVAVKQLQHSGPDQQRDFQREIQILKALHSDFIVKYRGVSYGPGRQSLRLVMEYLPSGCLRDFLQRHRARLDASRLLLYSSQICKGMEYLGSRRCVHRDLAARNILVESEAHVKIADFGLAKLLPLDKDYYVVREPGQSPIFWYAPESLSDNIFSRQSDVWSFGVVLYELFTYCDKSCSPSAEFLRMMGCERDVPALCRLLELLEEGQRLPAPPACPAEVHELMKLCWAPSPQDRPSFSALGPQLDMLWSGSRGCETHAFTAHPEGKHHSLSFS

[2] = molecular target: Tyrosine-protein kinase JAK1 (Homo sapiens, UniProt P23458); assay: Inhibition of N-terminal GST-tagged human recombinant JAK1 (866 to 1154 residues) expressed in insect cells using FITC-C6-KKHTDDGYMPMSPGVA-NH peptide as substrate incubated for 10 mins measured after 90 mins in presence of ATP by caliper mobility shift assay
Tyrosine-protein kinase JAK1, sequence (P23458 whole entry, the tested form may be a part): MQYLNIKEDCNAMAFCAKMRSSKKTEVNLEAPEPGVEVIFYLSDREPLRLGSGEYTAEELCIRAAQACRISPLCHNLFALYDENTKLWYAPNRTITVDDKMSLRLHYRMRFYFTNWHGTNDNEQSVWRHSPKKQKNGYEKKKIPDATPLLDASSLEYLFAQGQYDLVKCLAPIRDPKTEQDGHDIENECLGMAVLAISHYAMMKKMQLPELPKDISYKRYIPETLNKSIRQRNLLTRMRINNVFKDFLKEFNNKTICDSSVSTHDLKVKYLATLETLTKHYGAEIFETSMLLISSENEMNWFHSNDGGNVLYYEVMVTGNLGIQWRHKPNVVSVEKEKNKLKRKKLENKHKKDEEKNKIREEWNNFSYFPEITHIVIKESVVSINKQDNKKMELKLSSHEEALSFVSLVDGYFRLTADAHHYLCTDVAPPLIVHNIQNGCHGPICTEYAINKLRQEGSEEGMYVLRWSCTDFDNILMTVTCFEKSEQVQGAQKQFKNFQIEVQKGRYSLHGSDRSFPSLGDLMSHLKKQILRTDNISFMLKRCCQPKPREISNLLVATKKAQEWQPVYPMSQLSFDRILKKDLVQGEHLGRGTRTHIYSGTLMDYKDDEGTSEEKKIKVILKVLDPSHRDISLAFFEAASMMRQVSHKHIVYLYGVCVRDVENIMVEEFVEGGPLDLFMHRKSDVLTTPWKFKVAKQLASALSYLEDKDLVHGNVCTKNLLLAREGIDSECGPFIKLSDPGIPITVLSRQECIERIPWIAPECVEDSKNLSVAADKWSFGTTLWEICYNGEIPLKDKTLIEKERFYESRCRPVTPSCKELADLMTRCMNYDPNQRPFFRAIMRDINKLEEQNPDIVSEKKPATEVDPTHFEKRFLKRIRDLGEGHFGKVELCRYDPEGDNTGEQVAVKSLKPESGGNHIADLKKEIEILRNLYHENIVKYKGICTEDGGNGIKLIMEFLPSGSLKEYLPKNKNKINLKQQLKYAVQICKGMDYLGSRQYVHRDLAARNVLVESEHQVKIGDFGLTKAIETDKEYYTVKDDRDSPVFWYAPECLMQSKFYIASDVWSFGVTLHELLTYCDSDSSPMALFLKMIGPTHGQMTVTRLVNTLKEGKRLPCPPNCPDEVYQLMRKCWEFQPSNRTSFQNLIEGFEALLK

Compound	IC50 [1] [µM]	IC50 [2] [µM]
COC[C@H](C(=O)Nc1cccc2c(-c3nc(Nc4cccc(S(C)(=O)=O)c4F)ncc3F)c[nH]c12)N1CCN(C)CC1 [US10961228, Example 35]	> 30	< 0.003
CC[C@H](C(=O)Nc1cccc2c(-c3nc(Nc4cccc(S(C)(=O)=O)c4F)ncc3F)c[nH]c12)N1CCN(C)CC1 [US10961228, Example 38]	> 30	–

Further lines, results first:

IC50 [1] [µM]	IC50 [2] [µM]	Compound
> 30	–	Cc1cnc(Nc2cccc(S(C)(=O)=O)c2F)nc1-c1c[nH]c2c(NC(=O)[C@@H](C)N3CCN(C)CC3)cccc12 [US10961228, Example 2]
> 30	< 0.003	CC[C@H](C(=O)Nc1cccc2c(-c3nc(Nc4cccc(S(C)(=O)=O)c4F)ncc3C)c[nH]c12)N1CCN(C)CC1 [US10961228, Example 14]
> 30	< 0.003	COC[C@H](C(=O)Nc1cccc2c(-c3nc(Nc4cccc(S(C)(=O)=O)c4F)ncc3C)c[nH]c12)N1CCN(C)CC1 [US10961228, Example 16]
